Assay results: the supplement of paper PMC10307832

Experiments:
Assay in all cases: relative viability (nuclei count vs DMSO), 5 days (fraction); higher = more cells survive
CX-5461 + Tozasertib = compound: Cc1cnc(CNC(=O)c2c(=O)c3ccc(N4CCCN(C)CC4)nc3n3c2sc2ccccc23)cn1 [CX-5461] + Cc1cc(Nc2cc(N3CCN(C)CC3)nc(Sc3ccc(NC(=O)C4CC4)cc3)n2)n[nH]1 [Tozasertib] (partner 0.1 µM)
Summary of the method: (§1)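 Lung cancer cell lines, seeded in 1536-well plates, were treated the following day by pin tool with a single drug or with five library-drug doses (not always all listed) in √10 steps on top of a fixed anchor-drug dose. Cells were fixed and nuclei stained in one step after 5 days, and nuclei were counted. Relative viability is the nuclei count for treated wells divided by that for vehicle wells, reported as medians of duplicate plates.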

IMD-0354 + Bortezomib = compound: O=C(Nc1cc(C(F)(F)F)cc(C(F)(F)F)c1)c1cc(Cl)ccc1O [IMD-0354] + CC(C)C[C@H](NC(=O)[C@H](Cc1ccccc1)NC(=O)c1cnccn1)B(O)O [Bortezomib] (partner 0.002 µM)
Summary of the method: as §1

IMD-0354 + Foretinib = compound: O=C(Nc1cc(C(F)(F)F)cc(C(F)(F)F)c1)c1cc(Cl)ccc1O [IMD-0354] + COc1cc2c(Oc3ccc(NC(=O)C4(C(=O)Nc5ccc(F)cc5)CC4)cc3F)ccnc2cc1OCCCN1CCOCC1 [Foretinib] (partner 0.25 µM)
Summary of the method: as §1

IMD-0354 + Linsitinib = compound: O=C(Nc1cc(C(F)(F)F)cc(C(F)(F)F)c1)c1cc(Cl)ccc1O [IMD-0354] + C[C@]1(O)C[C@@H](c2nc(-c3ccc4ccc(-c5ccccc5)nc4c3)c3c(N)nccn32)C1 [Linsitinib] (partner 1 µM)
Summary of the method: as §1

Row | Cell Line | relative viability (CX-5461 + Tozasertib; first compound 0.01 µM) | relative viability (CX-5461 + Tozasertib; first compound 0.03162 µM) | relative viability (CX-5461 + Tozasertib; first compound 0.1 µM) | relative viability (CX-5461 + Tozasertib; first compound 0.3162 µM) | relative viability (CX-5461 + Tozasertib; first compound 1 µM) | relative viability (IMD-0354 + Bortezomib; first compound 0.04 µM) | relative viability (IMD-0354 + Bortezomib; first compound 0.1265 µM) | relative viability (IMD-0354 + Bortezomib; first compound 0.4 µM) | relative viability (IMD-0354 + Bortezomib; first compound 1.265 µM) | relative viability (IMD-0354 + Bortezomib; first compound 4 µM) | relative viability (IMD-0354 + Foretinib; first compound 0.04 µM) | relative viability (IMD-0354 + Foretinib; first compound 0.1265 µM) | relative viability (IMD-0354 + Foretinib; first compound 0.4 µM) | relative viability (IMD-0354 + Foretinib; first compound 1.265 µM) | relative viability (IMD-0354 + Foretinib; first compound 4 µM) | relative viability (IMD-0354 + Linsitinib; first compound 0.04 µM) | relative viability (IMD-0354 + Linsitinib; first compound 0.1265 µM) | relative viability (IMD-0354 + Linsitinib; first compound 0.4 µM) | relative viability (IMD-0354 + Linsitinib; first compound 1.265 µM) | relative viability (IMD-0354 + Linsitinib; first compound 4 µM)
1 | 201T | 0.921 | 1.04 | 0.945 | 0.847 | 0.925 | 1.12 | 1.1 | 0.928 | 0.924 | 0.361 | 1.18 | 1.18 | 1.05 | 0.235 | 0.178 | 1.13 | 1.01 | 1.02 | 1.06 | 0.385
2 | A549 | – | – | – | – | – | – | – | – | – | – | 0.986 | 1.02 | 0.481 | 0.0713 | 0.0502 | 0.782 | 0.581 | 0.264 | 0.439 | 0.0949
3 | A-427 | 0.195 | 0.247 | 0.212 | – | 0.212 | 1.14 | 1.07 | 0.543 | 0.369 | 0.109 | 0.972 | 1.08 | 0.594 | 0.655 | 0.168 | 1.21 | 1.1 | 0.986 | 0.719 | 0.115
4 | ABC-1 | 0.15 | 0.194 | 0.188 | – | 0.186 | 0.35 | 0.332 | 0.343 | 0.213 | 0.218 | 0.876 | 1.12 | 0.854 | 0.37 | 0.29 | 0.858 | 0.826 | 0.57 | 0.335 | 0.28
5 | BEN | 0.481 | 0.529 | 0.499 | 0.495 | 0.498 | 0.874 | 0.964 | 0.462 | 0.296 | 0.217 | 0.739 | 0.731 | 0.448 | 0.193 | 0.196 | 0.929 | 0.771 | 0.537 | 0.435 | 0.256
6 | CAL-12T | 0.361 | 0.353 | 0.222 | 0.272 | 0.174 | 1.03 | 0.963 | 0.682 | 0.177 | 0.18 | 1.25 | 0.844 | 0.638 | 0.486 | 0.154 | 0.771 | 0.754 | 0.895 | 0.152 | 0.164
7 | COR-L23 | 0.246 | 0.202 | 0.176 | 0.182 | 0.119 | 0.932 | 0.823 | 0.372 | 0.114 | 0.249 | 0.833 | 0.844 | 0.349 | 0.138 | 0.131 | 0.764 | 0.73 | 0.388 | 0.116 | 0.158
8 | COR-L 105 | 0.342 | 0.339 | 0.4 | 0.371 | 0.306 | 0.757 | 0.663 | 0.76 | 0.239 | 0.274 | 1.25 | 0.808 | 0.67 | 0.932 | 0.296 | 1.05 | 0.682 | 0.638 | 0.613 | 0.265
9 | Calu-6 | – | – | – | – | – | 1.1 | 1.1 | 0.673 | 0.167 | 0.124 | 0.941 | 0.829 | 0.579 | 0.172 | 0.101 | 0.92 | 0.859 | 0.862 | 0.0995 | 0.0777
10 | ChaGo-K-1 | 0.185 | 0.227 | 0.247 | 0.229 | 0.232 | 1.39 | 1.21 | 0.67 | 0.326 | 0.39 | 0.998 | 0.875 | 0.747 | 0.531 | 0.258 | – | – | – | – | –
11 | EBC-1 | – | – | – | – | – | 0.54 | 0.59 | 0.471 | 0.184 | 0.195 | 0.0859 | 0.103 | 0.104 | 0.105 | 0.0891 | 0.845 | 0.703 | 0.741 | 0.113 | 0.164
12 | EKVX | 0.387 | 0.366 | 0.332 | 0.35 | 0.378 | 1 | 1.39 | – | 0.716 | 0.187 | 0.974 | 0.975 | 0.714 | 0.0943 | 0.13 | 1.1 | 0.961 | – | 0.743 | 0.232
13 | EMC-BAC-2 | 0.275 | 0.314 | 0.247 | 0.252 | 0.244 | 1.17 | 1.03 | 0.553 | 0.634 | 0.217 | 1.08 | 1 | 0.594 | 0.513 | 0.302 | 0.909 | 0.825 | 0.549 | 0.801 | 0.207
14 | EPLC-272H | 0.22 | 0.381 | 0.33 | – | 0.477 | 0.966 | 0.986 | 0.686 | 0.955 | 0.266 | 0.761 | 0.61 | 0.512 | 0.269 | 0.0781 | 1.3 | 1.09 | 0.626 | 0.945 | 0.31
15 | H3255 | 0.691 | 0.603 | 0.694 | 0.568 | 0.527 | 0.804 | 0.9 | 0.509 | 0.22 | 0.27 | 0.836 | 1.02 | 0.785 | 0.433 | 0.283 | 0.931 | 0.916 | 0.509 | 0.314 | 0.237
